In patent US8772323B2, “Benzoxazole- and tetrahydrobenzoxazole-substituted pyridazinones as GPR119 agonists” (Boehringer Ingelheim International GmbH, priority 2010, dated 2014) one finds EC50 data, which are given here for 35 compounds.

SMILES strings stand for the structures. Where a name gives a salt, the structure may show the parent alone. Some results are limits rather than exact numbers.

In the experiment the target is human GPR119 (Homo sapiens (Human), UniProt Q8TDV5). The experiment can be described thus: AlphaScreen cAMP assay in Min-6/hGPR119 cells (GPR119 activation, intracellular cAMP). The settings on record: MIN6 cells stably transfected with human GPR119; 45 minutes' incubation at RT; AlphaScreen cAMP Assay Kit. The experiment is classed as cell-based. The essentials: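 MIN6 cells stably expressing human GPR119 plated 10000 cells/well and held 24 h at 37° C. Compounds applied in stimulating buffer, pH 7.4, with 0.5 mM IBMX, 0.1% BSA, 1% DMSO final, for 45 min at RT. Intracellular cAMP read by AlphaScreen.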
Chain of human GPR119 (Q8TDV5 whole entry): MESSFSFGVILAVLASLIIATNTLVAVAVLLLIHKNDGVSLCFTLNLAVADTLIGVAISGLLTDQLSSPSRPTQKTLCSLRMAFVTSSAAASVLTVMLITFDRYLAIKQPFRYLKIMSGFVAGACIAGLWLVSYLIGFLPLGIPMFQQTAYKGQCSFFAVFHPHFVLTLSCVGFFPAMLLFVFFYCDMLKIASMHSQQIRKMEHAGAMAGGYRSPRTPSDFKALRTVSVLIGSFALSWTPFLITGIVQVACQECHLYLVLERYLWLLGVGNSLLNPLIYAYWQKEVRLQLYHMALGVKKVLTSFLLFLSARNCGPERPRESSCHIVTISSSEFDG
Turning to `O=C1NN=C(N2CCc3nc(-c4ccccc4)oc3C2)C2CC12` (centres unmarked) [Example 135, 5-(2-phenyl-4,5,6,7-tetrahydro-4H-oxazolo[5,4-c]pyridin-5-yl)-3,4-diaza-bicyclo[4.1.0]hept-4-en-2-one], the EC50 came out at 391 nM. `CCC[C@H]1C(=O)NN=C(c2ccc3nc(-c4ccc(OCc5ccccc5)cc4)oc3c2)[C@H]1C` (relative stereo) [Example 199, cis-6-[2-(4-benzoxy-phenyl)-benzoxazol-6-yl]-5-methyl-4-propyl-4,5-dihydro-2H-pyridazin-3-one]: the EC50 was found to be 832 nM. In the case of `CCC1CC(=O)NN=C1c1ccc2nc(-c3ccc(CCc4ccccc4)cc3)oc2c1` (centres unmarked) [Example 76, 5-ethyl-6-[2-(4-phenethyl-phenyl)-benzoxazol-6-yl]-4,5-dihydro-2H-pyridazin-3-one], the midpoint of the response, the EC50, lay at 245 nM. Against the preceding compound, the EC50 is about 3.4-fold lower. The figure for `CCC1CC(=O)NN=C1c1ccc2nc(-c3ccc(OC(C)CN4CCCC4)cc3)oc2c1` (centres unmarked) [Example 210, 5-ethyl-6-[2-(4-{[1-(pyrrolidin-1-yl)propan-2-yl]oxy}phenyl)-1,3-benzoxazol-6-yl]-2,3,4,5-tetrahydropyridazin-3-one] is 590 nM; for `CCC1CC(=O)NN=C1c1ccc2nc(-c3ccccc3)oc2c1` (centres unmarked) [Example 29, 5-ethyl-6-(2-phenyl-benzoxazol-6-yl)-4,5-dihydro-2H-pyridazin-3-one] it is 181 nM.

In turn, `CCC1CC(=O)NN=C1c1ccc2nc(-c3ccc(OC)c(F)c3)oc2c1` (centres unmarked) [Example 98, 5-ethyl-6-[2-(3-fluoro-4-methoxy-phenyl)-benzoxazol-6-yl]-4,5-dihydro-2H-pyridazin-3-one] came in with an EC50 of 294 nM. Compared with the last compound, the EC50 is about 1.6-fold higher. `CCC1CC(=O)NN=C1c1ccc2nc(-c3ccc(OCCN4C[C@@H](C)O[C@@H](C)C4)cc3)oc2c1` (stereo partly drawn) [Example 246, 6-(2-{4-[2-(cis-2,6-dimethyl-morpholin-4-yl)-ethoxy]-phenyl}-benzoxazol-6-yl)-5-ethyl-4,5-dihydro-2H-pyridazin-3-one]: it took 54 nM to reach a half-maximal effect (EC50). This EC50 is about 5.4-fold lower than that of the compound before. The result for `CCC[C@H]1C(=O)NN=C(c2ccc3nc(-c4cc(C)cs4)oc3c2)[C@@H]1C` (relative stereo) [Example 186, trans-5-methyl-6-[2-(4-methyl-thiophen-2-yl)-benzoxazol-6-yl]-4-propyl-4,5-dihydro-2H-pyridazin-3-one] reads 88 nM; that for `C[C@@H]1C(=O)NN=C(c2ccc3nc(-c4ccccc4)oc3c2)[C@H]1C` [Example 26, (4S,5S)-4,5-dimethyl-6-(2-phenyl-benzoxazol-6-yl)-4,5-dihydro-2H-pyridazin-3-one], 166 nM; that for `CCC1CC(=O)NN=C1c1ccc2nc(-c3ccc(OCCN4[C@@H](C)CC[C@@H]4C)cc3)oc2c1` (stereo in doubt) [Example 250, 6-(2-{4-[2-((2R,5R)-trans-2,5-dimethylpyrrolidin-1-yl)-ethoxy]-phenyl}-benzoxazol-6-yl)-5-ethyl-4,5-dihydro-2H-pyridazin-3-one], 235 nM.

For `CCC1CC(=O)NN=C1c1ccc2nc(-c3cccc(OCCN4CCCCCC4)c3)oc2c1` (centres unmarked) [Example 149, 6-{2-[3-(2-azepan-1-yl-ethoxy)-phenyl]-benzoxazol-6-yl}-5-ethyl-4,5-dihydro-2H-pyridazin-3-one], a half-maximal response (EC50) required 567 nM. Against the preceding compound, the EC50 is about 2.4-fold higher. In the case of `CC[C@H]1CC(=O)NN=C1c1ccc2nc(-c3ccc(OCCN(C(C)C)C(C)C)cc3)oc2c1` [Example 258, (S)-6-{2-[4-(2-diisopropylamino-ethoxy)-phenyl]-benzoxazol-6-yl}-5-ethyl-4,5-dihydro-2H-pyridazin-3-one], the EC50 was 605 nM. In turn, `CCC1NC(=O)NN=C1c1ccc2nc(-c3ccccc3)oc2c1` (centres unmarked) [Example 144, 5-ethyl-6-(2-phenyl-benzoxazol-6-yl)-4,5-dihydro-2H-[1,2,4]triazin-3-one] yielded an EC50 of 987 nM. Regarding `CC1CC(=O)NN=C1c1ccc2nc(-c3ccc(OCc4ccccc4)cc3)oc2c1` (centres unmarked) [Example 36, 6-[2-(4-benzyloxy-phenyl)-benzoxazol-6-yl]-5-methyl-4,5-dihydro-2H-pyridazin-3-one], the response was half-maximal at 58 nM (EC50).

The compound `C[C@H]1CC(=O)NN=C1c1ccc2nc(-c3ccccc3)oc2c1` [Example 1, (S)-5-methyl-6-(2-phenyl-benzoxazol-6-yl)-4,5-dihydro-2H-pyridazin-3-one] returned an EC50 of 660 nM. `CCC1CC(=O)NN=C1c1ccc2nc(-c3ccc(OCc4cncn4C)cc3)oc2c1` (centres unmarked) [Example 42, 5-ethyl-6-{2-[4-(3-methyl-3H-imidazol-4-ylmethoxy)-phenyl]-benzoxazol-6-yl}-4,5-dihydro-2H-pyridazin-3-one] yielded an EC50 of 4180 nM.

Take `C[C@@H]1CC(c2ccc3nc(-c4ccccc4)oc3c2)=NNC1=O` [Example 4, (R)-4-methyl-6-(2-phenyl-benzoxazol-6-yl)-4,5-dihydro-2H-pyridazin-3-one]: the EC50 turned out to be 596 nM. The result for `CCC1OC(=O)NN=C1c1ccc2nc(-c3ccccc3)oc2c1` (stereo in doubt) [Example 80, (R)-6-ethyl-5-(2-phenyl-benzoxazol-6-yl)-3,6-dihydro-[1,3,4]oxadiazin-2-one] reads 615 nM; that for `CCC[C@H]1C(=O)NN=C(c2ccc3nc(-c4cccs4)oc3c2)[C@@H]1C` (relative stereo) [Example 183, trans-5-methyl-4-propyl-6-(2-thiophen-2-yl-benzoxazol-6-yl)-4,5-dihydro-2H-pyridazin-3-one], 134 nM. With `CCC1CC(=O)NN=C1c1ccc2nc(-c3ccc(OCC(C)(C)N4CCCC4)cc3)oc2c1` (centres unmarked) [Example 229, 5-ethyl-6-(2-{4-[2-methyl-2-(pyrrolidin-1-yl)propoxy]phenyl}-1,3-benzoxazol-6-yl)-2,3,4,5-tetrahydropyridazin-3-one], the response was half-maximal at 398 nM (EC50). Against the preceding compound, the EC50 is about 3-fold higher.

In turn, `CCC1CC(=O)NN=C1c1ccc2nc(-c3cc(C)cs3)oc2c1` (centres unmarked) [Example 97, 5-ethyl-6-[2-(4-methyl-thiophen-2-yl)-benzoxazol-6-yl]-4,5-dihydro-2H-pyridazin-3-one] gave an EC50 of 225 nM.

Regarding `CCC1CC(=O)NN=C1c1ccc2nc(-c3ccc(OCCN4C(C)(C)CCCC4(C)C)cc3)oc2c1` (centres unmarked) [Example 58, 5-ethyl-6-(2-{4-[2-(2,2,6,6-tetramethyl-piperidin-1-yl)-ethoxy]-phenyl}-benzoxazol-6-yl)-4,5-dihydro-2H-pyridazin-3-one], the EC50 worked out at 76 nM. The result for `CCC1CC(=O)NN=C1c1ccc2nc(-c3ccc(OCC4CCNCC4)cc3)oc2c1` (centres unmarked) [Example 71, 4-{4-[6-(4-ethyl-6-oxo-1,4,5,6-tetrahydro-pyridazin-3-yl)-benzoxazol-2-yl]-phenoxymethyl}-piperidine as hydrochloride] reads over 10000 nM; that for `CCC[C@@H]1C(=O)NN=C(c2ccc3nc(-c4ccc(O)cc4)oc3c2)[C@H]1C` [Example 203], 962 nM; that for `CCC1CC(=O)NN=C1c1ccc2nc(-c3ccc(O[C@H]4CCC[C@@H]4N4CCCCC4)cc3)oc2c1` (relative stereo) [Example 225, 5-ethyl-6-{2-[4-(trans-2-piperidin-1-yl-cyclopentyloxy)-phenyl]-benzoxazol-6-yl}-4,5-dihydro-2H-pyridazin-3-one], 231 nM. Regarding `CCC[C@@H]1C(=O)NN=C(c2ccc3nc(-c4ccccc4)oc3c2)[C@H]1C` (relative stereo) [Example 128, trans-5-methyl-6-(2-phenyl-benzoxazol-6-yl)-4-propyl-4,5-dihydro-2H-pyridazin-3-one], the concentration for a half-maximal effect (EC50) amounted to 56 nM. This EC50 lies about 4.1-fold lower than the previous one. `CCC1CC(=O)NN=C1c1ccc2nc(-c3ccc(OCCOC)cc3)oc2c1` (centres unmarked) [Example 214, 5-ethyl-6-{2-[4-(2-methoxy-ethoxy)-phenyl]-benzoxazol-6-yl}-4,5-dihydro-2H-pyridazin-3-one] gave an EC50 of 122 nM.

`CCC1CC(=O)NN=C1c1ccc2nc(-c3ccc(OCCN4CC(C)OC(C)C4)cc3)oc2c1` (centres unmarked) [Example 220, 6-(2-{4-[2-(2,6-dimethyl-morpholin-4-yl)-ethoxy]-phenyl}-benzoxazol-6-yl)-5-ethyl-4,5-dihydro-2H-pyridazin-3-one] showed an EC50 of 84 nM. With `CC[C@@H]1C(c2ccc3nc(-c4ccc(OC(C)C)cc4)oc3c2)=NNC(=O)[C@@H]1C` (relative stereo) [Example 179, cis-5-ethyl-6-[2-(4-isopropoxy-phenyl)-benzoxazol-6-yl]-4-methyl-4,5-dihydro-2H-pyridazin-3-one], the EC50 was 3840 nM. `CCC1CC(=O)NN=C1c1ccc2nc(-c3ccc(OC4CCOCC4)cc3)oc2c1` (centres unmarked) [Example 105, 5-ethyl-6-{2-[4-(tetrahydro-pyran-4-yloxy)-phenyl]-benzoxazol-6-yl}-4,5-dihydro-2H-pyridazin-3-one] gave an EC50 of 80 nM. The figure for `C=CC[C@H]1C(=O)NN=C(c2ccc3nc(-c4ccccc4)oc3c2)[C@H]1C` (relative stereo) [Example 198, cis-4-allyl-5-methyl-6-(2-phenyl-benzoxazol-6-yl)-4,5-dihydro-2H-pyridazin-3-one] is 896 nM; for `O=C1NN=C(c2ccc3nc(-c4ccc(F)cc4)oc3c2)C2CCC12` (centres unmarked) [Example 19, 5-[2-(4-fluoro-phenyl)-benzoxazol-6-yl]-3,4-diaza-bicyclo[4.2.0]oct-4-en-2-one] it is 469 nM.

The compound `CCC1CC(=O)NN=C1c1ccc2nc(-c3ccc(OCCN4CCCCCC4)cc3)oc2c1` (centres unmarked) [Example 53, 6-{2-[4-(2-azepan-1-yl-ethoxy)-phenyl]-benzoxazol-6-yl}-5-ethyl-4,5-dihydro-2H-pyridazin-3-one] gave an EC50 of 205 nM. On to `CCC1CC(=O)NN=C1c1ccc2nc(-c3ccc(OC(C)CO)cc3)oc2c1` (centres unmarked) [Example 251, 5-ethyl-6-{2-[4-(2-hydroxy-1-methyl-ethoxy)-phenyl]-benzoxazol-6-yl}-4,5-dihydro-2H-pyridazin-3-one], for which the EC50 stood at 296 nM. In the case of `CCC1CC(=O)NN=C1c1ccc2nc(-c3ccc(OC[C@@H]4CCCN4C(=O)OC(C)(C)C)cc3)oc2c1` (some centres unmarked) [Example 226], the midpoint of the response, the EC50, lay at 47 nM.
